In patent publication US20240075099A1, “COMPOSITIONS, ASSAYS, AND METHODS FOR TARGETING HDM2 AND HDMX TO REVERSE THE INHIBITION OF p53 IN [sequence] CANCERS” (Dana-Farber Cancer Institute, Inc., priority 2016, published 2024):
Entries after “also recorded” stand apart in the source; their conditions may differ.

How the values were obtained:
MV4; 11 cells [1] = assay: Viability of pediatric AML cell line; format: cell-based; details: 11, FIG. 6A
TC32 Ewing sarcoma cells = assay: Annexin V/PI staining and FACS analysis; format: cell-based; details: 1 μM, 48 hours post-treatment, FIG. 16
Experimental: TC32 Ewing sarcoma cells were treated with vehicle or 1 μM ALRN-7041 and then subjected to Annexin V/PI staining and FACS analysis at 48 hours post-treatment.

[2] = system: high grade glioma (e.g. GBM) neurospheres bearing mutant p53; assay: CellTiter-Glo viability, neurospheres; format: cell-based; details: 72 h, FIG. 13
Experimental: (§4) Cells were plated in 96-well opaque plates (5000 cells/well) in Neurobasal-A/DMEM/F-12 mixture media containing HEPES, MEM sodium pyruvate, MEM non-essential amino acids, GlutaMAX, B27 Supplement, H-EGF, H-FGF, H-PDGF-AA, H-PDGF-BB, and heparin. The following day, the cells were treated with the indicated concentrations of drug or vehicle control (0.2% DMSO). […] Cell viability was measured after 72 h by CellTiter-Glo assay (Promega, Madison, WI, USA), performed according to the manufacturer's instructions, and percent viability calculated based on the untreated controls. Error bars are mean±s.e.m for experiments performed in technical triplicate.

[3] = system: Ewing sarcoma cell lines that bear wild-type p53; assay: CellTiter-Glo viability, Ewing sarcoma cell line panel; format: cell-based; details: 72 h, FIG. 14
Excerpt: (§1) Error bars are mean±s.e.m. for eight technical replicates.
(§2) A panel of Ewing sarcoma cell lines that bear wild-type p53 (black) vs. mutant or deleted p53 (grey) were exposed to a serial dilution of ALRN-7041 (FIG. 14).

[4] = system: Ewing sarcoma cells bearing mutant or deleted p53; assay: as above; format: cell-based; details: 72 h, FIG. 14
Excerpt: as §1, §2

[5] = system: TC32 Ewing Sarcoma xenografts; assay: Xenograft tumor growth; format: in vivo, mice; details: 30 mg/kg IV q.o.d. vs vehicle, two-way ANOVA p=0.0036, FIG. 19
Experimental: Treatment of mice bearing TC32 Ewing Sarcoma xenografts with 30 mg/kg ALRN-7041 IV q.o.d. […] Error bars are mean±SD. For each animal, treatment was instituted when tumors achieved a tumor volume of 100 mm^3, as determined by caliper measurement. Statistical ignificance was calculated by two-way ANOVA analysis (p=0.0036).

[6] = system: TC32 Ewing Sarcoma xenografts; assay: mRNA quantitation in xenograft tumor tissue; format: in vivo, mice; details: normalized to vehicle-treated samples, FIG. 18
Excerpt: ALRN-7041 treatment of mice bearing TC32 Ewing Sarcoma xenografts increases MDM2 and p21 mRNA levels in tumor tissue (FIG. 18). Each bar represents the response of an individual mouse tumor, as assessed by replicates of mRNA quantitation. Values are normalized to vehicle-treated samples. Error bars are mean±SD.

Molm-14 leukemia cells = assay: CellTiter-Glo viability, leukemia cells; format: cell-based; details: wild-type p53, 10% serum, 48 h, FIG. 11
Experimental: (§3) Importantly, the sensitivity of RS4; 11 and Molm-14 cells is peptide sequence dependent, as the F19A point mutant analog of ALRN-7041, ALRN-7041 F19A, has no effect (FIG. 11). Leukemia cells were treated in 10% serum with a serial dilution of stapled p53 peptides or Nutlin 3a, and then measured by CellTiter-Glo assay.

RS4; 11 leukemia cells = assay: CellTiter-Glo viability, leukemia cells; format: cell-based; details: wild-type p53, 10% serum, 48 h, FIG. 11
Experimental: as §3

Nomo-1 = assay: CellTiter-Glo viability, leukemia cells; format: cell-based; details: mutant p53 (C242 frameshift), 10% serum, 48 h, FIG. 11
Experimental: as §3

Thp-1 = assay: CellTiter-Glo viability, leukemia cells; format: cell-based; details: mutant p53 (R174 frameshift), 10% serum, 48 h, FIG. 11
Experimental: as §3

[7] = system: DIPG neurospheres bearing wild-type p53
Experimental: as §4

[8] = system: TC32 Ewing Sarcoma xenograft; assay: Western analysis of xenograft tumor tissue; format: in vivo, mice; details: three intravenous doses, 8 hours after last dose, FIG. 17
Experimental: After TC32 Ewing sarcoma tumor engraftment, mice were treated with three intravenous doses of ALRN-7041 or vehicle and sacrificed 8 hours after the last dose. Each lane of the gel represents an individual mouse tumor, subjected to western analysis using anti-MDM2, p53, and p21 antibodies. Anti-tubulin was used as a loading control.

[9] = system: p53 wild-type TC32 and TC138 Ewing sarcoma cells; assay: Western blot of lysates, p53 pathway; format: cell-based; details: FIG. 15
Excerpt: Western blot analysis of electrophoresed lysates from p53 wild-type TC32 and TC138 Ewing sarcoma cells treated with ALRN-7041 at the indicated doses and time points and probed with anti-MDM2, p53, and p21 antibodies.

MV4; 11 cells [10] = assay: Cellular uptake, fluorescence scan of lysates from treated cells; format: cell-based; details: full serum, 4 h, FIG. 6B
Experimental: Cellular Penetrability Assays: To measure the cell penetrability of peptides or crosslinked polypeptides, intact cells are incubated with fluoresceinated crosslinked polypeptides (10 μM) for 4 hrs in serum-free media or in media supplemented with human serum at 37° C., washed twice with media and incubated with trypsin (0.25%) for 10 min at 37° C. The cells are washed again and resuspended in PBS. Cellular fluorescence is analyzed, for example, by using either a FACSCalibur flow cytometer or Cellomics' KineticScan® HCS Reader. Alternative methods include, e.g., high content epifluorescence microscopy, confocal imaging, or fluorescence scan of electrophoresed lysates from FITC-peptide treated cells (see, e.g., LaBelle et al. JCI 2012, 122: 2018-31).

[11] = system: p53 protein level in RS4; 11 cells; assay: p53 protein level by flow cytometry; format: cell-based; details: 3 hours, 10% serum, FIG. 12
Experimental: RS4; 11 cells were plated in 6-well plates (10^6/well) in RMPI containing 10% FBS and treated for 3 hours with ALRN-7041, ALRN-7041 F19A, or vehicle control (0.2% DMSO) in the presence of 10% serum. Cells were then harvested by centrifugation, washed in ice cold PBS, and resuspended in 100 viL PBS containing 1 μL Fixable Viability Stain 450 (BD Biosciences, Franklin Lakes. NJ, USA) and incubated in the dark at room temperature for 15 minutes. The cells were stained for p53 immunofluorescence with Cytofix/Cytoperm and the PE Mouse Anti-p53 Set (BD Biosciences) according to the manufacturer's instructions, using 10 viL PE-G59-12 anti-p53 mouse IgG1 or isotype control antibody per 10 6 cells. Stained and fixed cells were analyzed on an LSR II flow cytometer (BD Biosciences). Cell populations were gated on forward and side scatter to select for single cells and on fluorescence at 450 nm to select for live cells, and PE fluorescence in the gated population was measured at 578 nm.

In the case of Ac-LTF*EYWAQZ*SAA-NH2 [ALRN-7041], the cell viability (MV4; 11 cells [1]) is reported as “impairs cell viability in both a dose-responsive and peptide sequence-dependent fashion; also recorded: dose-responsively impairs the viability”, the “Annexin V/PI double positivity (apoptosis)” value (TC32 Ewing sarcoma cells) is reported as “robust Annexin V/PI double positivity” and the cell viability [2] is reported as “no susceptibility”. The cell viability [3] was “dose-responsively impaired the viability”, the cell viability [4] was “little to no effect” and the tumor growth [5] was “statistically significant suppression of tumor growth”. For the same compound, the “MDM2 mRNA level in tumor tissue” value [6] was “increases”, the “p21 mRNA level in tumor tissue” value [6] was “increases” and the cell viability (Molm-14 leukemia cells) was “succumb to ALRN-7041 in dose-responsive fashion”. For the same compound, the cell viability (RS4; 11 leukemia cells) was “succumb to ALRN-7041 in dose-responsive fashion”, the cell viability (Nomo-1) was “unaffected by treatment” and the cell viability (Thp-1) was “unaffected by treatment”. The “cytotoxic effect compared to a selective small molecule inhibitor of HDM2” value [7] was “markedly enhanced cytotoxic effect”, the cell viability ([7]; 72 h, FIG. 13) was “succumb to treatment” and the “MDM2 protein level in tumor tissue” value [8] was “induces”. The “p21 protein level in tumor tissue” value [8] was “induces”, the “p53 protein level in tumor tissue” value [8] was “induces” and the MDM2 protein induction [9] was “transient induction”. For the same compound, the p21 protein induction [9] was “robust induction”, the p53 protein induction [9] was “robust induction” and the cellular uptake (MV4; 11 cells [10]) was “readily taken up by cells”. For the same compound, the p53 protein level [11] was “dose-responsively upregulates p53 protein level”.

With `COc1ccc(C2=N[C@@H](c3ccc(Cl)cc3)[C@@H](c3ccc(Cl)cc3)N2C(=O)N2CCNC(=O)C2)c(OC(C)C)c1` [Nutlin-3a, reference compound] the cell viability (MV4; 11 cells [1]) was “little to no effect; also recorded: resistant”.
